Data: patent publication EP0394553A2, “Use of fluorine containing pyridone carboxylic acid derivatives for preparing a medicament for the treatment of HIV infections” (DAIICHI PHARMACEUTICAL CO., LTD., priority 1989, dated 1990)

Tested on: CEM cells
Assay: Cytotoxicity in uninfected CEM cells (trypan blue staining)
Settings: at concentrations not exceeding 10 mcg/ml
Description: Human T cell-derived, T4 antigen-positive CEM cells (provided by the Institut Pasteur, France) were used as host cells of HIV. Cell culture was carried out in a carbon dioxide-containing atmosphere in an incubator maintained at 37°C according to a conventional method [cf. […] The culture supernatant (5×10⁶ TCID₅₀/ml) obtained by subjecting CEM cells to HIV (LAV 1) infection and stored at -70°C was used as the HIV source.
The cell culture medium (10 ml) placed in a plastic culture flask (25 cm²) was inoculated with CEM cells to a cell density of 2.5×10⁵ cells/ml and incubation was performed for 3 days. Then, the culture was transferred to a 15-ml plastic centrifuge tube and centrifuged at 1,000 revolutions per minute for 5 minutes for medium removal. A fresh portion of the medium was added to the cells, the cell density being adjusted to 5.0×10⁵ cells/ml. The following mixture (1.0 ml) containing the cell suspension prepared in the above manner was incubated in a 24-well plastic culture plate for 4 days:
The cells in each well were then suspended uniformly in the medium by pipetting and a 0.5-ml portion of the suspension was separated.
A fresh 2-ml portion of the test substance-free medium was added to the remaining cell suspension (0.5 ml) and, after a further 3-day incubation, a cell suspension was produced in the same manner and a 0.5-ml portion thereof was removed.
The cell suspensions collected in the above manner were subjected to viable cell count and viable cell percentage determinations by trypan blue staining.

| Structure (SMILES) | cytotoxicity |
| --- | --- |
| CC1COc2c(N3CCN(C)CC3)c(F)cc3c(=O)c(C(=O)O)cn1c23 (racemic) [OFLX, (±)-9-fluoro-3-methyl-10-(4-methyl-1-piperazinyl)-7-oxo-2,3-dihydro-7H-pyrido[1,2,3-de][1,4]benzoxazine-6-carboxylic acid] | no cytotoxicity |
| C[C@H]1COc2c(N3CCN(C)CC3)c(F)cc3c(=O)c(C(=O)O)cn1c23 [DR-3355, (-)-(S)-9-fluoro-2,3-dihydro-3-methyl-10-(4-methyl-1-piperazinyl)-7-oxo-7H-pyrido[1,2,3-de][1,4]benzoxazine-6-carboxylic acid hemihydrate] | no cytotoxicity |
| CCn1cc(C(=O)O)c(=O)c2cc(F)c(N3CCNCC3)cc21 [NFLX, 1-ethyl-6-fluoro-1,4-dihydro-4-oxo-7-(1-piperazinyl)-3-quinolinecarboxylic acid] | no cytotoxicity |
